Experimental data as given in patent US20100168102A9, “Amide Derivatives as Kinase Inhibitors” (Devgen NV, priority 2005, published 2010).
Structures can show the parent of a compound that is named as a salt. Where two headings read alike, the source gives them in different places.

Assays:
PKC epsilon = biological target: T1, PKC epsilon (Homo sapiens, UniProt Q02156); experiment: Biochemical assay for PKC epsilon (fluorescence polarization, Protein Kinase C Assay Kit, Red); details: read-out: IC50 μM PKCε
T1 construct: purchased Invitrogen P2282
T1 sequence (Q02156 1-737): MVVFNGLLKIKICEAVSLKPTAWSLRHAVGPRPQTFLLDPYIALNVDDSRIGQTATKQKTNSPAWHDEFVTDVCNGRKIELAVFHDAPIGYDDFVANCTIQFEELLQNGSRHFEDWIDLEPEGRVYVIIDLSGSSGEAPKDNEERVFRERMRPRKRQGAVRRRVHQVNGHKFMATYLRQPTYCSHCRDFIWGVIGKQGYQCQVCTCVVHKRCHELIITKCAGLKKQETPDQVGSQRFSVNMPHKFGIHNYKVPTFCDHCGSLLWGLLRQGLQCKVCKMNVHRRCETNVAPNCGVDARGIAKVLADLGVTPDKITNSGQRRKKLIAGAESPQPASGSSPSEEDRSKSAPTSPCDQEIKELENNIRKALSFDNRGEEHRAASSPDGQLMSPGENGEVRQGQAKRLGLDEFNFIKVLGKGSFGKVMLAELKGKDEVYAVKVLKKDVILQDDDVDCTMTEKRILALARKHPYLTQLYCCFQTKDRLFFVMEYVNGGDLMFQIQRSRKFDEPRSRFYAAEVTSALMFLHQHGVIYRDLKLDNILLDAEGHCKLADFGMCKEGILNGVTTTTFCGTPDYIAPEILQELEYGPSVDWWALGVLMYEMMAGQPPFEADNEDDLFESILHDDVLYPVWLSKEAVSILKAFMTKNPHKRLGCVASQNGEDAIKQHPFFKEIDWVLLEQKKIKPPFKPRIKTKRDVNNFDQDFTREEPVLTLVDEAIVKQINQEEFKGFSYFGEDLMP
Outline: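 PKC epsilon at 10 ng/ml final was preincubated 30 min at room temperature with compound in HEPES pH 7.4 with DTT and Triton X-100. ATP/protein substrate was then added in buffer with MgCl2 and CaCl2 for 80 min. The reaction was stopped with EDTA, phosphorylation was detected by fluorescence polarization with rhodamine tracer and anti-phosphoserine antibody, and IC50 values came from curve fits.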

human ROCKα/ROCKII mix = biological target: T2, human ROCKα/ROCKII mix (Homo sapiens, UniProt O75116); experiment: Biochemical assay for ROCK (fluorescence polarization, ROCK IMAP Kit)
T2 construct: purchased Upstate Biotechnology 14-451

[1] = compounds of Formula XIV, Table 3
[2] = Table 2, compounds of Formula XIII

T2 sequence (O75116 11-552 limits assumed): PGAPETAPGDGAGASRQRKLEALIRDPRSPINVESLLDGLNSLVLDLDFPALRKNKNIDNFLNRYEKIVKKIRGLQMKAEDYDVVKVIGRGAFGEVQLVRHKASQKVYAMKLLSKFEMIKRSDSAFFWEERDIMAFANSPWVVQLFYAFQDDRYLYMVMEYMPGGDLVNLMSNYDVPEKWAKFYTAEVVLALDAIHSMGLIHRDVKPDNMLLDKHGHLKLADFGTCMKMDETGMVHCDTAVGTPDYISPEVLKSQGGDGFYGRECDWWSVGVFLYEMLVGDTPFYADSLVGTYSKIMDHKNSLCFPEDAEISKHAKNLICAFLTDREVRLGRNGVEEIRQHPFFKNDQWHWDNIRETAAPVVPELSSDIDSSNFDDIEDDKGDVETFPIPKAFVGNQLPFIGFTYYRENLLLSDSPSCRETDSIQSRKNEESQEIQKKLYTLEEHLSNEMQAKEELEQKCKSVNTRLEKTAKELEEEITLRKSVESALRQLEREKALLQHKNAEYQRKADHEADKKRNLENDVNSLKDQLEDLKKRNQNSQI

SMILES	IC50 (PKC epsilon; [2])	IC50 (human ROCKα/ROCKII mix; [2])	further results
NC(CC(=O)Nc1ccc2[nH]ccc2c1)c1ccc(C(=O)Nc2ccncc2)cc1 (stereo not shown) [Compound 321, 4-[1-Amino-2-(1H-indol-5-ylcarbamoyl)-ethyl]-N-pyridin-4-yl-benzamide]	–	–	IC50 (PKC epsilon; [1]): 0.5 to 5 µM; IC50 (human ROCKα/ROCKII mix; [1]): 0.05 to 0.5 µM
NC(CC(=O)Nc1ccc2cc[nH]c2c1)c1ccc(C(=O)Nc2ccncc2)cc1 (stereo not shown) [Compound 322, 4-[1-Amino-2-(1H-indol-6-ylcarbamoyl)-ethyl]-N-pyridin-4-yl-benzamide]	–	–	IC50 (PKC epsilon; [1]): 0.05 to 0.5 µM; IC50 (human ROCKα/ROCKII mix; [1]): 0.05 to 0.5 µM
NC(CC(=O)Nc1cc(-c2ccco2)[nH]n1)c1ccc(C(=O)Nc2ccncc2)cc1 (stereo not shown) [Compound 323, 4-[1-Amino-2-(5-furan-2-yl-1H-pyrazol-3-ylcarbamoyl)-ethyl]-N-pyridin-4-yl-benzamide]	–	–	IC50 (PKC epsilon; [1]): 0.5 to 5 µM; IC50 (human ROCKα/ROCKII mix; [1]): 0.05 to 0.5 µM
NC(CC(=O)NNC(=O)c1ccco1)c1ccc(C(=O)Nc2ccncc2)cc1 (stereo not shown) [Compound 325, 4-{1-amino-3[N′-(furan-2-carbonyl)-hydrazino]-3-oxo-propyl}-N-pyridin-4-yl-benzamide]	–	–	IC50 (PKC epsilon; [1]): 0.5 to 5 µM; IC50 (human ROCKα/ROCKII mix; [1]): 0.05 to 0.5 µM
NC(CNC(=O)Nc1ccc(Cl)cc1)c1ccc(C(=O)Nc2ccncc2)cc1 (stereo not shown) [Compound 326, 4-{1-Amino-2-[3-(4-chloro-phenyl)-ureido]-ethyl}-N-pyridin-4-yl-benzamide]	–	–	IC50 (PKC epsilon): 0.05 to 0.5 µM; IC50 (human ROCKα/ROCKII mix): 0.05 to 0.5 µM
COc1ccc(CC(=O)NCC(N)c2ccc(C(=O)Nc3ccncc3)cc2)cc1F (stereo not shown) [Compound 327, 4-{1-Amino-2-[2-(3-fluoro-4-methoxy-phenyl)-acetylamino]-ethyl}-N-pyridin-4-yl-benzamide]	0.5 to 5 µM	0.05 to 0.5 µM	–
COc1ccc(C2(C(=O)NCC(N)c3ccc(C(=O)Nc4ccncc4)cc3)CCCC2)cc1 (stereo not shown) [Compound 344, 4-(1-Amino-2-{[1-(4-methoxy-phenyl)-cyclopentanecarbonyl]-amino}-ethyl)-N-pyridin-4-yl-benzamide]	0.05 to 0.5 µM	0.05 to 0.5 µM	–
NC(CNC(=O)C1(c2ccc(Cl)c(Cl)c2)CC1)c1ccc(C(=O)Nc2ccncc2)cc1 (stereo not shown) [Compound 345, 4-(1-Amino-2-{[1-(3,4-dichloro-phenyl)-cyclopropanecarbonyl]-amino}-ethyl)-N-pyridin-4-yl-benzamide]	0.05 to 0.5 µM	0.05 to 0.5 µM	–
CC(C)(C(=O)NCC(N)c1ccc(C(=O)Nc2ccncc2)cc1)c1ccsc1 (stereo not shown) [Compound 346, 4-[1-Amino-2-(2-methyl-2-thiophen-3-yl-propionylamino)-ethyl]-N-pyridin-4-yl-benzamide]	0.05 to 0.5 µM	0.05 to 0.5 µM	–
NC(CNC(=O)C1(c2ccsc2)CC1)c1ccc(C(=O)Nc2ccncc2)cc1 (stereo not shown) [Compound 347, 4-{1-Amino-2-[(1-thiophen-3-yl-cyclopropanecarbonyl)-amino]-ethyl}-N-pyridin-4-yl-benzamide]	0.05 to 0.5 µM	0.05 to 0.5 µM	–
CC(C)(C(=O)NCC(N)c1ccc(C(=O)Nc2ccncc2)cc1)c1cccs1 (stereo not shown) [Compound 348, 4-[1-Amino-2-(2-methyl-2-thiophen-2-yl-propionylamino)-ethyl]-N-pyridin-4-yl-benzamide]	< 0.05 µM	0.05 to 0.5 µM	–
NC(CNC(=O)C1(c2cccs2)CC1)c1ccc(C(=O)Nc2ccncc2)cc1 (stereo not shown) [Compound 349, 4-{1-Amino-2-[(1-thiophen-2-yl-cyclopropanecarbonyl)-amino]-ethyl}-N-pyridin-4-yl-benzamide]	0.05 to 0.5 µM	0.05 to 0.5 µM	–
COc1ccc2c(c1)CCCC2C(=O)NCC(N)c1ccc(C(=O)Nc2ccncc2)cc1 (stereo not shown) [Compound 355, 6-Methoxy-1,2,3,4-tetrahydro-naphthalene-1-carboxylic acid {2-amino-2-[4-(pyridin-4-ylcarbamoyl)-phenyl]-ethyl}-amide]	0.05 to 0.5 µM	0.05 to 0.5 µM	–
NC(CC(=O)N[C@H]1CCc2ccccc21)c1ccc(C(=O)Nc2ccncc2)cc1 (stereo partly drawn) [Compound 357, 4-[1-Amino-2-((S)-indan-1-ylcarbamoyl)-ethyl]-N-pyridin-4-yl-benzamide]	–	–	IC50 (PKC epsilon; [1]): 0.5 to 5 µM; IC50 (human ROCKα/ROCKII mix; [1]): 0.05 to 0.5 µM
NC(CC(=O)N[C@@H]1CCc2ccccc21)c1ccc(C(=O)Nc2ccncc2)cc1 (stereo partly drawn) [Compound 358, 4-[1-Amino-2-((R)-indan-1-ylcarbamoyl)-ethyl]-N-pyridin-4-yl-benzamide]	–	–	IC50 (PKC epsilon; [1]): 0.05 to 0.5 µM; IC50 (human ROCKα/ROCKII mix; [1]): 0.05 to 0.5 µM
N[C@H](CC(=O)N[C@H]1CCCc2ccccc21)c1ccc(C(=O)Nc2ccncc2)cc1 [Compound 372, 4-{(R)-1-Amino-2-[(S)-(1,2,3,4-tetrahydro-naphthalen-1-yl)carbamoyl]-ethyl}-N-pyridin-4-yl-benzamide dihydrochloric acid salt]	–	–	IC50 (PKC epsilon): 0.5 to 5 µM; IC50 (human ROCKα/ROCKII mix): 0.05 to 0.5 µM
N[C@@H](CC(=O)N[C@@H]1CCCc2ccccc21)c1ccc(C(=O)Nc2ccncc2)cc1 [Compound 374, 4-{(S)-1-Amino-2-[(R)-(1,2,3,4-tetrahydro-naphthalen-1-yl)carbamoyl]-ethyl}-N-pyridin-4-yl-benzamide dihydrochloric acid salt]	–	–	IC50 (PKC epsilon): 0.5 to 5 µM; IC50 (human ROCKα/ROCKII mix): 0.05 to 0.5 µM
N[C@@H](CC(=O)N[C@H]1CCCc2ccccc21)c1ccc(C(=O)Nc2ccncc2)cc1 [Compound 375, 4{(S)-1-Amino-2-[(S)-(1,2,3,4-tetrahydro-naphthalen-1-yl)carbamoyl]-ethyl}-N-pyridin-4-yl-benzamide dihydrochloric acid salt]	–	–	IC50 (PKC epsilon): 5 to 50 µM; IC50 (human ROCKα/ROCKII mix): 0.05 to 0.5 µM
NC(CNC(=O)C1(c2ccc(F)c(F)c2)CC1)c1ccc(C(=O)Nc2ccncc2)cc1 (stereo not shown) [Compound 377, 4-(1-Amino-2-{[1-(3,4-difluoro-phenyl)-cyclopropanecarbonyl]-amino}-ethyl)-N-pyridin-4-yl-benzamide]	< 0.05 µM	0.05 to 0.5 µM	–
NC(CNC(=O)C1(c2ccc(F)c(F)c2)CCC1)c1ccc(C(=O)Nc2ccncc2)cc1 (stereo not shown) [Compound 378, 4-(1-Amino-2-{[1-(3,4-difluoro-phenyl)-cyclobutanecarbonyl]-amino}-ethyl)-N-pyridin-4-yl-benzamide]	< 0.05 µM	0.05 to 0.5 µM	–
NC(CNC(=O)C1(c2ccc(F)c(F)c2)CCCC1)c1ccc(C(=O)Nc2ccncc2)cc1 (stereo not shown) [Compound 379, 4-(1-Amino-2-{[1-(3,4-difluoro-phenyl)-cyclopentanecarbonyl]-amino}-ethyl)-N-pyridin-4-yl-benzamide]	< 0.05 µM	0.05 to 0.5 µM	–
CC(C)(C(=O)NCC(N)c1ccc(C(=O)Nc2ccncc2)cc1)c1ccc(Cl)c(Cl)c1 (stereo not shown) [Compound 380, 4-{1-Amino-2-[2-(3,4-dichloro-phenyl)-2-methyl-propionylamino]-ethyl}-N-pyridin-4-yl-benzamide]	< 0.05 µM	0.05 to 0.5 µM	–
NC(CNC(=O)C1(c2ccc(Cl)c(Cl)c2)CCC1)c1ccc(C(=O)Nc2ccncc2)cc1 (stereo not shown) [Compound 381, 4-(1-Amino-2-{[1-(3,4-dichloro-phenyl)-cyclobutanecarbonyl]-amino}-ethyl)-N-pyridin-4-yl-benzamide]	0.05 to 0.5 µM	0.05 to 0.5 µM	–
CC(C)(C(=O)NCC(N)c1ccc(C(=O)Nc2ccncc2)cc1)c1ccc(F)c(Cl)c1 (stereo not shown) [Compound 382, 4-{1-Amino-2-[2-(3-chloro-4-fluoro-phenyl)-2-methyl-propionylamino]-ethyl}-N-pyridin-4-yl-benzamide]	< 0.05 µM	0.05 to 0.5 µM	–
CC(C)(C(=O)NCC(N)c1ccc(C(=O)Nc2ccncc2)cc1)c1ccc(F)cc1F (stereo not shown) [Compound 384, 4-{1-Amino-2-[2-(2,4-difluoro-phenyl)-2-methyl-propionylamino]-ethyl}-N-pyridin-4-yl-benzamide]	< 0.05 µM	0.05 to 0.5 µM	–
NC(CNC(=O)C1(c2ccc(F)cc2F)CC1)c1ccc(C(=O)Nc2ccncc2)cc1 (stereo not shown) [Compound 385, 4-(1-Amino-2-{[1-(2,4-difluoro-phenyl)-cyclopropanecarbonyl]-amino}-ethyl)-N-pyridin-4-yl-benzamide]	< 0.05 µM	0.05 to 0.5 µM	–
CC(C)(C(=O)NCC(N)c1ccc(C(=O)Nc2ccncc2)cc1)c1ccc(F)cc1Cl (stereo not shown) [Compound 386, 4-{1-Amino-2-[2-(2-chloro-4-fluoro-phenyl)-2-methyl-propionylamino]-ethyl}-N-pyridin-4-yl-benzamide]	< 0.05 µM	0.05 to 0.5 µM	–
NC(CNC(=O)C1(c2ccc(F)cc2Cl)CC1)c1ccc(C(=O)Nc2ccncc2)cc1 (stereo not shown) [Compound 387, 4-(1-Amino-2-{[1-(2-chloro-4-fluoro-phenyl)-cyclopropanecarbonyl]-amino}-ethyl)-N-pyridin-4-yl-benzamide]	< 0.05 µM	0.05 to 0.5 µM	–
CC(C)(C(=O)NCC(N)c1ccc(C(=O)Nc2ccncc2)cc1)c1ccc(Cl)cc1F (stereo not shown) [Compound 388, 4-{1-Amino-2-[2-(4-chloro-2-fluoro-phenyl)-2-methyl-propionylamino]-ethyl}-N-pyridin-4-yl-benzamide]	< 0.05 µM	0.05 to 0.5 µM	–
